Experimental findings from patent US9290478B2, “Substituted quinoxalines as FGFR kinase inhibitors” (ASTEX THERAPEUTICS LTD, priority 2010, dated 2016) are described below.

One experiment deals with FGFR1 (h) (Homo sapiens, UniProt P11362). Nature of the experiment: FGFR1 (enzymatic assay), TR-FRET. The following applies: 5 μM ATP; read-out: FGFR1 pIC50 (converted). The class given is biochemical. As for the experimental part: In a final reaction volume of 30 μL, FGFR1 (h) (25 ng/ml) was incubated with 50 mM HEPES pH 7.5, 6 mM MnCl2, 1 mM DTT, 0.1 mM Na3VO4, 0.01% Triton-X-100, 500 nM Btn-Flt3 and 5 μM ATP in the presence of compound (1% DMSO final). After incubation for 60 minutes at room temperature the reaction was stopped with 2.27 nM EU-anti P-Tyr, 7 mM EDTA, 31.25 nM SA-XL-665 and 0.02% BSA which was present for 60 minutes at room temperature. Time-Resolved Fluorescence Resonance Energy Transfer (TR-FRET) signal (ex340 nm. Em 620 nm, em 655 nm) was measured afterwards and results are expressed in RFU (Relative Fluorescence Units). In this assay, the inhibitory effect of different compound concentrations (range 10 μM to 0.1 nM) was determined and used to calculate an IC50 (M) and pIC50 (−log IC50) value.
(Time-resolved FRET reads energy transfer from a long-lived donor to a nearby acceptor.)

In experiment [1] the target is T1, Ba/F3-Flt3-transfected cells (Homo sapiens, UniProt P36888, cells depend on it, form not given).
T1 construct: BAF3-FLT3 (MIN IL3) pIC50; other: minus IL3
T1 sequence (P36888 1-993): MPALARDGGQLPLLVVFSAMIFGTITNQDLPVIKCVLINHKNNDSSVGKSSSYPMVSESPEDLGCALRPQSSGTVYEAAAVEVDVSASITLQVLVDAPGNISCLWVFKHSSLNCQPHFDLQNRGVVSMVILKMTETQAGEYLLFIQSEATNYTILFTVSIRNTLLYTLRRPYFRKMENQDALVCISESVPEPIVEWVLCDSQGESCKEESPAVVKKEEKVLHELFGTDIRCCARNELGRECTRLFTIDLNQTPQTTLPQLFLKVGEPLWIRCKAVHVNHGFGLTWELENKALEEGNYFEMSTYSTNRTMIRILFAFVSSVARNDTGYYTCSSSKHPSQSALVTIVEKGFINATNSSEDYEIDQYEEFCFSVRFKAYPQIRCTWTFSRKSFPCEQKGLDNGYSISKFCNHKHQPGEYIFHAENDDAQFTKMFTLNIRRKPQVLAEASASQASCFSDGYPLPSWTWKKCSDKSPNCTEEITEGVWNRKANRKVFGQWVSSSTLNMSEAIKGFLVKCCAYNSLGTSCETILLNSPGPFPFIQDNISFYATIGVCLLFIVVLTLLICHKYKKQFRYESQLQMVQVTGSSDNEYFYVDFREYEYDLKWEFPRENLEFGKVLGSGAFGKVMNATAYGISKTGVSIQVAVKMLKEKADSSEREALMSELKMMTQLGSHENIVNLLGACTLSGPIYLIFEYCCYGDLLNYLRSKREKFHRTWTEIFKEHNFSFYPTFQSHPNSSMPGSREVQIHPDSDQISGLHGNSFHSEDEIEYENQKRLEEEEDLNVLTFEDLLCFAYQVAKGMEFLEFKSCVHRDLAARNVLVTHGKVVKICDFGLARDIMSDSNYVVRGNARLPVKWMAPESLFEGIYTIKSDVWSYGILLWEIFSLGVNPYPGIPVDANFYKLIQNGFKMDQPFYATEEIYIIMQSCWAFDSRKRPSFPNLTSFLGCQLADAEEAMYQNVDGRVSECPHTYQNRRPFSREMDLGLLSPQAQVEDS
Nature of the experiment: Ba/F3-Flt3 (minus IL3 or plus IL3) cellular proliferation assay. The class given is cell-based. The note with it: minus IL3.

Experiment [2] deals with Ba/F3-FGFR1-transfected cells. Nature of the experiment: Ba/F3-FGFR1 (minus IL3 or plus IL3) cellular proliferation assay. In kind it is cell-based. The note with it: 24 h; plus 10 ng/ml murine IL3 (counterscreen); read-out: BAF3-FGFR1 (PLUS IL3) pIC50 (converted). As for the experimental part: (§1) Ba/F3-FGFR1 (Minus IL3 or Plus IL3) (Cellular Proliferation Assay)
(§2) In a 384 well plate, 100 nl of compound dilution in DMSO was sprayed before adding 50 μl cell culture medium (phenol red free RPMI-1640, 10% FBS, 2 mM L-Glutamine and 50 μg/ml Gentamycin) containing 20000 cells per well of Ba/F3-FGFR1-transfected cells. Cells were put in an incubator at 37° C. and 5% CO2. After 24 hours, 10 μl of Alamar Blue solution (0.5 mM K3Fe(CN)6, 0.5 mM K4Fe(CN)6, 0.15 mM Resazurin and 100 mM Phosphate Buffer) was added to the wells, incubated for 4 hours at 37° C. and 5% CO2 before RFU's (Relative Fluorescence Units) (ex. 540 nm., em. 590 nm.) were measured in a fluororescence plate reader.
(§3) In this assay, the inhibitory effect of different compound concentrations (range 10 μM to 0.1 nM) was determined and used to calculate an IC50 (M) and pIC50 (−log IC50) value.
(§4) As a counterscreen the same experiment was performed in the presence of 10 ng/ml murine IL3.
On the technique in general: A counterscreen serves to expose hits that act by an unwanted route or on another target.

Experiment [3] concerns the target T2, Ba/F3-FGFR1-transfected cells (Homo sapiens, UniProt P11362).
T2 construct: BAF3-FGFR1 (MIN IL3) pIC50; other: minus IL3
The experiment is described as above. The following applies: minus IL3. The class given is cell-based. As for the experimental part: as §1, §2, §3, §4

Chain of FGFR1 (h) (P11362 22-822): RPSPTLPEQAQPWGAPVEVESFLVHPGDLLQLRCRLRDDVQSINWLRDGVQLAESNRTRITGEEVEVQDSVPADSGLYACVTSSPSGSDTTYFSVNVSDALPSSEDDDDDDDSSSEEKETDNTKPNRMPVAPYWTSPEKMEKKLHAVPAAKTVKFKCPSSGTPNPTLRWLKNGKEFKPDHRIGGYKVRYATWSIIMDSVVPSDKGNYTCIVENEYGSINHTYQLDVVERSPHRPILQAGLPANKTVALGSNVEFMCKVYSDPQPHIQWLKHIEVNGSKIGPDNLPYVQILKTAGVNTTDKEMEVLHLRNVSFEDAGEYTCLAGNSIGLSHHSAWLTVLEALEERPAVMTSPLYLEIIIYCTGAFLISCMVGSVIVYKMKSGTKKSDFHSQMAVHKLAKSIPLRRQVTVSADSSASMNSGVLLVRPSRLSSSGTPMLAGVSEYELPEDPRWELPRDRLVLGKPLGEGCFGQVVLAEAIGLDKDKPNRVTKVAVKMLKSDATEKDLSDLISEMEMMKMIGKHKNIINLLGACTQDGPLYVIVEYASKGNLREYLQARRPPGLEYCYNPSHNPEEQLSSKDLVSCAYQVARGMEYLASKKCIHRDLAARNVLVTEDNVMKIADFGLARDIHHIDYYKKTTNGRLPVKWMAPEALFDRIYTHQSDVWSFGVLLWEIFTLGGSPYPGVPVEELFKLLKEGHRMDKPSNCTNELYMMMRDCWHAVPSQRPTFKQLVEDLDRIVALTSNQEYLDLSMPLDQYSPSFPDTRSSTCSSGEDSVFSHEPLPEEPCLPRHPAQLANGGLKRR
T2 sequence (P11362 whole entry, change not shown): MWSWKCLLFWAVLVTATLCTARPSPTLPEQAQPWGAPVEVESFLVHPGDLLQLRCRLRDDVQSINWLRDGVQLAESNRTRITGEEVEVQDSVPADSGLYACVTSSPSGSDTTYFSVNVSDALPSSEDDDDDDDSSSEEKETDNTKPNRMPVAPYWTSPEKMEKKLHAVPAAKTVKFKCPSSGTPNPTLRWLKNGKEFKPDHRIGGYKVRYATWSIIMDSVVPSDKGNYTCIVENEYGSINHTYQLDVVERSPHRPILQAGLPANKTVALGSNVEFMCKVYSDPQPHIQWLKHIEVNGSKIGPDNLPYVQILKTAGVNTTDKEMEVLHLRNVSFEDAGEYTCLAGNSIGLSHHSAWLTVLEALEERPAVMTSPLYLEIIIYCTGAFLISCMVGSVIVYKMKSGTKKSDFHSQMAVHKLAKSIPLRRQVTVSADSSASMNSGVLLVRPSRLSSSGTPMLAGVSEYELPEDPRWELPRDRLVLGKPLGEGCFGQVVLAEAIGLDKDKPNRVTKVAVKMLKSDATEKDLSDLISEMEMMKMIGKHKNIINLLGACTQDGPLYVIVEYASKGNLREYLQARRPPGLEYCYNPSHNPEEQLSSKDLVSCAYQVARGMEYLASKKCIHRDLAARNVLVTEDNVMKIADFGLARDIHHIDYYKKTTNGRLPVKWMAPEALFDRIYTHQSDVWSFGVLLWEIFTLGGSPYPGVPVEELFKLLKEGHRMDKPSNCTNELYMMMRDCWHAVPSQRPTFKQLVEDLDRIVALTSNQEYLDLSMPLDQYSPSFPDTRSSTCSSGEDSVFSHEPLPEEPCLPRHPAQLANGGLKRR

`Cn1cc(-c2cnc3ccc(C(O)c4ccccc4)cc3n2)cn1` (stereo not shown) [Compound 28]: the IC50 on FGFR1 (h) is roughly 1510 nM; in experiment [2], greater than 10000 nM. For the same compound, the “BAF3-FLT3 (MIN IL3) pIC50” value in experiment [1] is less than 5. The “BAF3-FGFR1 (MIN IL3) pIC50” value in experiment [3] is listed as less than 5.
For the compound `COc1cc(OC)cc(C2(c3ccc4ncc(-c5cnn(C)c5)nc4c3)CC2)c1` [Compound 30], the IC50 is 91.2 nM at FGFR1 (h) and greater than 10000 nM in experiment [2]. Further, the “BAF3-FLT3 (MIN IL3) pIC50” value in experiment [1] is reported as less than 5. In addition, the “BAF3-FGFR1 (MIN IL3) pIC50” value in experiment [3] was found to be 5.23.
For `COc1cc(OC)cc(C(CCN(C)C)c2ccc3ncc(-c4cnn(C)c4)nc3c2)c1.Cl` (stereo not shown) [Compound 21], in that order: 37.2 nM, greater than 10000 nM, less than 5 and 5.95.
For `COc1cc(OC)cc(C(CCCN)c2ccc3ncc(-c4cnn(C)c4)nc3c2)c1.Cl` (stereo not shown) [Compound 40], in that order: 490 nM, greater than 10000 nM, less than 5 and 5.
As to `COc1cc(OC)cc(/C(=C\CNCC(F)(F)F)c2ccc3ncc(-c4cnn(C)c4)nc3c2)c1` [Compound 14, {(Z)-3-(3,5-Dimethoxy-phenyl)-3-[3-(1-methyl-1H-pyrazol-4-yl)-quinoxalin-6-yl]-allyl}-(2,2,2-trifluoro-ethyl)-amine], the IC50 at FGFR1 (h) is 13.8 nM; in experiment [2], greater than 10000 nM. Moreover, in experiment [1], the “BAF3-FLT3 (MIN IL3) pIC50” value is reported as less than 5. In addition, the “BAF3-FGFR1 (MIN IL3) pIC50” value in experiment [3] was 6.17.
For `COc1cc(OC)cc(/C(=C/CN(C)C)c2ccc3ncc(-c4cnn(C)c4)nc3c2)c1` [Compound 34], in that order: 132 nM, greater than 10000 nM, less than 5 and 5.08.
On to `COc1cc(OC)cc(/C(=C\C#N)c2ccc3ncc(-c4cnn(C)c4)nc3c2)c1` [Compound 4], for which the IC50 at FGFR1 (h) was 53.7 nM; in experiment [2], greater than 10000 nM. The “BAF3-FLT3 (MIN IL3) pIC50” value in experiment [1] is on record as 5.29. Besides, the “BAF3-FGFR1 (MIN IL3) pIC50” value in experiment [3] is 5.3.
For `COc1cc(OC)cc(C(CCNC(C)C)c2ccc3ncc(-c4cnn(C)c4)nc3c2)c1` (single isomer, unassigned) [Compound 19a], in that order: 7.59 nM, greater than 10000 nM, less than 5 and 6.93.
In the case of `COc1cc(OC)cc(/C(=C/C#N)c2ccc3ncc(-c4cnn(C)c4)nc3c2)c1` [Compound 3], the figures for the IC50 (on FGFR1 (h); in experiment [2]) were 2290 nM and greater than 10000 nM, respectively. Besides, the “BAF3-FLT3 (MIN IL3) pIC50” value in experiment [1] is reported as less than 5. Moreover, the “BAF3-FGFR1 (MIN IL3) pIC50” value in experiment [3] is listed as less than 5.
On to `CNCC(O)(c1cc(OC)cc(OC)c1)c1ccc2ncc(-c3cnn(C)c3)nc2c1.Cl` (single isomer, unassigned) [Compound 37], for which the values for the IC50 (on FGFR1 (h); in experiment [2]) were roughly 891 nM and greater than 10000 nM, respectively. Further, the “BAF3-FLT3 (MIN IL3) pIC50” value in experiment [1] is reported as less than 5. The “BAF3-FGFR1 (MIN IL3) pIC50” value in experiment [3] is given as less than 5.
